Patent publication US20240002332A1, “Small Molecule Inhibitors of SARS-CoV-2 Infections” (priority 2020, published 2024)
Several values for one entry are separate records, joined by “and”; a condition that tells them apart may be missing. Equal entries are not always repeated. Where two headings read alike, the source gives them in different places.

Key:
[1] = Kinetic solubility (Tier I ADME); settings: kinetic from dmso stock
[2] = Pharmacokinetics in male hamsters, plasma and lung, IV 3 mg/kg or PO 30 mg/kg; settings: for Kp at 0.083 h / Kp at 4 h / Kp at 2 h / Kp at 8 h / Kp at 0.5 h / Kp at 1 h / Kp at […]: Ratio (Lung/Plasma)
Experimental: Compound P3 was administered intravenously (3 mg/kg dosing in 20% HP-β-CD in water) or orally (30 mg/kg dosing in 20% HP-β-CD in water).

[3] = Parallel artificial membrane permeability assay (PAMPA); settings: PAMPA, pH 5
Vero-E6 = experiment: Cytotoxicity counter screen (cell viability, CellTiter-Glo); assay type: cell-based
Experimental: Compound cytotoxicity was assessed in a BSL-2 counter screen as follows: Cell culture media (MEM, 1% Pen/Strep/GlutaMax, 1% HEPES, 2% HI FBS) was dispensed at 5 μl/well into ARPs and incubated at room temperature to allow for compound dissolution. Vero-E6 (selected for high ACE2 expression) was dispensed into assay plates at 4000 cells/well in 25 μl media. Assay plates were incubated for 72 h at 37 C, 5% CO2, 90% humidity. Then, 30 μl/well of CellTiter-Glo (Promega #G7573) was dispensed into the assay plate. Luminescence was read using a BMG PHERAstar plate reader following incubation at room temperature for 10 min to measure cell viability.

[4] = test system: SARS CoV-2 (USA_WA1/2020); experiment: Cytopathic effect (CPE) assay; assay type: cell-based; settings: Severe acute respiratory syndrome coronavirus 2, Vero C1008, 72 h
[5] = Tolerability study in mice, 7 days QD, PK on the 7th day; settings: 25, 50 and 100 mg/kg PO QD 7 days, C57BL/6J mice
in vivo = settings: C57BL/6, mouse, po, C57BL/6 mice; for AUC(0-inf): AUCInf; for AUC(0-inf) / AUC(0-t) / Cmax / Tmax: Compound P3 in plasma; for AUC(0-t): AUClast; for half-life: t1/2, Compound P3 in plasma
[6] = Compound P3 IV 3 mg/kg, 0.083 h, individual animals, 3 mg/kg
[7] = Compound P3 IV 3 mg/kg, 4 h, individual animals, 3 mg/kg
[8] = Compound P3 IV 3 mg/kg, 8 h, individual animals, 3 mg/kg
[9] = Compound P3 IV 3 mg/kg, 24 h, individual animals, 3 mg/kg
[10] = Compound P3 PO 30 mg/kg, 0.5 h, individual animals, 30 mg/kg
[11] = Compound P3 PO 30 mg/kg, 1 h, individual animals, 30 mg/kg
[12] = Compound P3 PO 30 mg/kg, 2 h, individual animals, 30 mg/kg
[13] = Compound P3 PO 30 mg/kg, 4 h, individual animals, 30 mg/kg
[14] = Compound P3 PO 30 mg/kg, 8 h, individual animals, 30 mg/kg
[15] = Compound P3 intravenously or orally
[16] = Compound P3 in plasma, PO 50 mg/kg (PO_A), C57BL/6 mice, individual mice, 50 mg/kg
[17] = Compound P3 in plasma, PO 100 mg/kg (PO_B), C57BL/6 mice, individual mice, 100 mg/kg
[18] = 50 mg/kg, PO 50 mg/kg (PO_A), Mean n = 3
[19] = 50 mg/kg, PO 50 mg/kg (PO_A), individual mice
[20] = 100 mg/kg, PO 100 mg/kg (PO_B), Mean n = 3
[21] = 100 mg/kg, PO 100 mg/kg (PO_B), individual mice

SMILES: O=C(Nc1ccc([N+](=O)[O-])cc1Cl)c1cc(Cl)ccc1OC(=O)N1CCNCC1 [Compound P3, 4-chloro-2-((2-chloro-4-nitrophenyl)carbamoyl)phenyl piperazine-1-carboxylate]
- solubility [1]: > 43 µg/mL
- Lung [2, 6]: 15360 ng/g and 23120 ng/g
- Ratio (Lung/Plasma) [2, 6]: 36.0 and 31.0
- Lung [2, 7]: 1436 ng/g and 2904 ng/g and 1800 ng/g
- Ratio (Lung/Plasma) [2, 7]: 111 and 59.4
- Lung [2, 8]: 263 ng/g and 275 ng/g
- Ratio (Lung/Plasma) [2, 8]: 45.3 and 76.3 and 109
- plasma concentration ([2]; Compound P3 IV 3 mg/kg, 24 h, individual animals): BLOQ
- Lung [2, 9]: 8.44 ng/g and 3.59 ng/g
- lung concentration, Conc. (ng/mL) [2, 9]: BLOQ
- Lung [2, 10]: 113200 ng/g and 72400 ng/g and 33400 ng/g
- Ratio (Lung/Plasma) [2, 10]: 53.2 and 59.7
- Lung [2, 11]: 82400 ng/g and 105600 ng/g
- Ratio (Lung/Plasma) [2, 11]: 69.2 and 130
- Lung [2, 12]: 102000 ng/g and 74400 ng/g
- Ratio (Lung/Plasma) [2, 12]: 96.2 and 108
- Lung [2, 13]: 48800 ng/g and 65200 ng/g
- Ratio (Lung/Plasma) [2, 13]: 215 and 97.6 and 73.2
- Lung [2, 14]: 6800 ng/g and 2928 ng/g and 7080 ng/g
- Ratio (Lung/Plasma) [2, 14]: 191 and 311
- plasma concentration ([2]; Compound P3 PO 30 mg/kg, 24 h, individual animals): BLOQ
- Lung ([2]; Compound P3 PO 30 mg/kg, 24 h, individual animals, 30 mg/kg): 38.2 ng/g and 22.6 ng/g and 11.1 ng/g
- amount of active metabolite in lung tissue relative to plasma concentration [2, 15]: significantly higher amount of active metabolite in lung tissue
- overall concentration of active metabolite [2, 15]: provided a higher overall concentration of active metabolite
- concentration at 0.083 h ([2]; male, hamster, in vivo, iv, 3 mg/kg, Lung (ng/g), Compound P3 IV 3 mg/kg, 0.083 h, individual animals): 27400 ng/g
- concentration at 8 h ([2]; male, hamster, in vivo, iv, 3 mg/kg, Lung (ng/g), Compound P3 IV 3 mg/kg, 8 h, individual animals): 270 ng/g
- Kp at 0.083 h ([2]; male, hamster, in vivo, iv, 3 mg/kg, Compound P3 IV 3 mg/kg, 0.083 h, individual animals): 34.1
- Kp at 4 h ([2]; male, hamster, in vivo, iv, 3 mg/kg, Compound P3 IV 3 mg/kg, 4 h, individual animals): 68.4
- Kp at 0.083 h ([2]; male, hamster, in vivo, iv, 3 mg/kg, Mean, Compound P3 IV 3 mg/kg, 0.083 h): 33.7
- Kp at 2 h ([2]; male, hamster, in vivo, iv, 3 mg/kg, Mean, Compound P3 IV 3 mg/kg, 2 h): 81
- Kp at 4 h ([2]; male, hamster, in vivo, iv, 3 mg/kg, Mean, Compound P3 IV 3 mg/kg, 4 h): 80
- Kp at 8 h ([2]; male, hamster, in vivo, iv, 3 mg/kg, Mean, Compound P3 IV 3 mg/kg, 8 h): 77
- concentration at 1 h ([2]; male, hamster, in vivo, po, 30 mg/kg, Lung (ng/g), Compound P3 PO 30 mg/kg, 1 h, individual animals): 106000 ng/g
- concentration at 2 h ([2]; male, hamster, in vivo, po, 30 mg/kg, Lung (ng/g), Compound P3 PO 30 mg/kg, 2 h, individual animals): 67600 ng/g
- concentration at 4 h ([2]; male, hamster, in vivo, po, 30 mg/kg, Lung (ng/g), Compound P3 PO 30 mg/kg, 4 h, individual animals): 65600 ng/g
- Kp at 0.5 h ([2]; male, hamster, in vivo, po, 30 mg/kg, Compound P3 PO 30 mg/kg, 0.5 h, individual animals): 89.1
- Kp at 1 h ([2]; male, hamster, in vivo, po, 30 mg/kg, Compound P3 PO 30 mg/kg, 1 h, individual animals): 98.1
- Kp at 2 h ([2]; male, hamster, in vivo, po, 30 mg/kg, Compound P3 PO 30 mg/kg, 2 h, individual animals): 88.6
- Kp at 8 h ([2]; male, hamster, in vivo, po, 30 mg/kg, Compound P3 PO 30 mg/kg, 8 h, individual animals): 194
- Kp at […] ([2]; male, hamster, in vivo, po, 30 mg/kg, Compound P3 PO 30 mg/kg, individual animals): 34.8
- Kp at 0.5 h ([2]; male, hamster, in vivo, po, 30 mg/kg, Mean, Compound P3 PO 30 mg/kg, 0.5 h): 67.4
- Kp at 1 h ([2]; male, hamster, in vivo, po, 30 mg/kg, Mean, Compound P3 PO 30 mg/kg, 1 h): 99
- Kp at 2 h ([2]; male, hamster, in vivo, po, 30 mg/kg, Mean, Compound P3 PO 30 mg/kg, 2 h): 98
- Kp at 4 h ([2]; male, hamster, in vivo, po, 30 mg/kg, Mean, Compound P3 PO 30 mg/kg, 4 h): 129
- Kp at 8 h ([2]; male, hamster, in vivo, po, 30 mg/kg, Mean, Compound P3 PO 30 mg/kg, 8 h): 232
- Kp at […] ([2]; male, hamster, in vivo, po, 30 mg/kg, Mean, Compound P3 PO 30 mg/kg): 32.3
- Papp [3]: 500 ×10⁻⁶ cm/s
- IC50 (Vero-E6; Chlorocebus sabaeus, Vero C1008, 72 h, read-out: IC50 (μM) cell viability): 7.21 µM
- Efficacy cell viability (Vero-E6; uninfected Vero-E6, 72 h, CellTiter-Glo): −99.8
- AUC_% Extrap (Compound P3 in plasma, PO 50 mg/kg (PO_A), C57BL/6 mice, Mean n = 3): 33.5%
- AUClast [16]: 12332 ng·h/mL and 10489 ng·h/mL
- Cmax [16]: 1920 ng/mL and 1560 ng/mL
- Tmax [16]: 0.500 h
- t1/2 [16]: 3.70 h
- AUC_% Extrap (Compound P3 in plasma, PO 100 mg/kg (PO_B), C57BL/6 mice, Mean n = 3): 28.2%
- AUCInf [17]: 33619 ng·h/mL and 24577 ng·h/mL and 56087 ng·h/mL
- AUC_% Extrap [17]: 22.7% and 23.7% and 38.3%
- AUClast [17]: 18757 ng·h/mL and 34617 ng·h/mL
- Cmax [17]: 2340 ng/mL and 3880 ng/mL
- t1/2 [17]: 13.8 h and 19.8 h
- in vivo conversion to niclosamide (Compound P3 oral, mice): effectively converted in vivo to the active niclosamide
- plasma exposure of niclosamide vs that reported for oral niclosamide (oral Compound P3, mice): much improved plasma exposures of niclosamide
- IC50 [4]: 4.05 µM
- Emax ([4]; read-out: Efficacy CPE assay): 40.7%
- body weight [5]: no dose dependent weight loss
- tolerability [5]: tolerable for the study period, with no gross findings
- AUC(0-inf) (in vivo; [18]): 88700 ng·h/mL
- AUC(0-t) (in vivo; [18]): 9730 ng·h/mL
- AUC(0-t) (in vivo; [19]): 6360 ng·h/mL
- Cmax (in vivo; [18]): 1460 ng/mL
- Cmax (in vivo; [19]): 1140 ng/mL
- half-life (in vivo; [18]): 4.14 h
- half-life (in vivo; [19]): 4.58 h
- Tmax (in vivo; [18]): 2 h
- AUC(0-inf) (in vivo; [20]): 38100 ng·h/mL
- AUC(0-t) (in vivo; [20]): 26400 ng·h/mL
- AUC(0-t) (in vivo; [21]): 26000 ng·h/mL
- Cmax (in vivo; [20]): 3060 ng/mL
- Cmax (in vivo; [21]): 2970 ng/mL
- half-life (in vivo; [20]): 15.3 h
- half-life (in vivo; [21]): 12.4 h
- Tmax (in vivo; [20]): 1 h
- Tmax (in vivo; [21]): 1 h
